What was measured:
Nucleic Acid [1] = experiment: Ratio of drug level in tumor to brain in S180 tumor-bearing mouse at 8 to 10 uCi, iv at 120 mins by gamma counting; assay type: ADME, organism-based; details: in vivo, 2 h
Liver [2] = experiment: Biodistribution in S180 tumor-bearing mouse liver at 8 to 10 uCi, iv after 120 mins by gamma counting; assay type: ADME, organism-based; details: in vivo, 2 h
Heart [3] = experiment: Biodistribution in S180 tumor-bearing mouse heart at 8 to 10 uCi, iv after 5 mins by gamma counting; assay type: ADME, organism-based; details: in vivo
Stomach [4] = experiment: Biodistribution in S180 tumor-bearing mouse stomach at 8 to 10 uCi, iv after 60 mins by gamma counting; assay type: ADME, organism-based; details: in vivo, 1 h
Lung [5] = experiment: Biodistribution in S180 tumor-bearing mouse lungs at 8 to 10 uCi, iv after 5 mins by gamma counting; assay type: ADME, organism-based; details: in vivo
Kidney [6] = experiment: Biodistribution in S180 tumor-bearing mouse kidneys at 8 to 10 uCi, iv after 5 mins by gamma counting; assay type: ADME, organism-based; details: in vivo
Nucleic Acid [7] = experiment: Ratio of drug level in tumor to blood in S180 tumor-bearing mouse at 8 to 10 uCi, iv at 5 mins by gamma counting; assay type: ADME, organism-based; details: tumour
Nucleic Acid [8] = experiment: Ratio of drug level in tumor to blood in S180 tumor-bearing mouse at 8 to 10 uCi, iv at 120 mins by gamma counting; assay type: ADME, organism-based; details: tumour, 2 h
Muscle tissue [9] = experiment: Biodistribution in S180 tumor-bearing mouse muscle at 8 to 10 uCi, iv after 120 mins by gamma counting; assay type: ADME, organism-based; details: in vivo, 2 h
Brain [10] = experiment: Biodistribution in S180 tumor-bearing mouse brain at 8 to 10 uCi, iv after 5 mins by gamma counting; assay type: ADME, organism-based; details: in vivo
Blood [11] = experiment: Biodistribution in S180 tumor-bearing mouse blood at 8 to 10 uCi, iv after 120 mins by gamma counting; assay type: ADME, organism-based; details: in vivo, 2 h
Blood [12] = experiment: Biodistribution in S180 tumor-bearing mouse blood at 8 to 10 uCi, iv after 30 mins by gamma counting; assay type: ADME, organism-based; details: in vivo, 0.5 h
Kidney [13] = experiment: Biodistribution in S180 tumor-bearing mouse kidney at 8 to 10 uCi, iv after 30 mins by gamma counting; assay type: ADME, organism-based; details: in vivo, 0.5 h
Blood [14] = experiment: Biodistribution in S180 tumor-bearing mouse blood at 8 to 10 uCi, iv after 60 mins by gamma counting; assay type: ADME, organism-based; details: in vivo, 1 h
Mus musculus [15] = experiment: Biodistribution in S180 cells xenografted in mouse tumor at 8 to 10 uCi, iv after 60 mins by gamma counting; assay type: ADME, organism-based, Neoplasm, CCRF S-180; details: in vivo, 1 h
Liver [16] = experiment: Biodistribution in S180 tumor-bearing mouse liver at 8 to 10 uCi, iv after 5 mins by gamma counting; assay type: ADME, organism-based; details: in vivo
Nucleic Acid [17] = experiment: Ratio of drug level in tumor to muscle in S180 tumor-bearing mouse at 8 to 10 uCi, iv at 30 mins by gamma counting; assay type: ADME, organism-based; details: in vivo, 0.5 h
Nucleic Acid [18] = experiment: Ratio of drug level in tumor to brain in S180 tumor-bearing mouse at 8 to 10 uCi, iv at 30 mins by gamma counting; assay type: ADME, organism-based; details: in vivo, 0.5 h
Plasma = experiment: Metabolic stability in mouse plasma after 2 hrs by radio-HPLC analysis; assay type: ADME, cell-free
Muscle tissue [19] = experiment: Biodistribution in S180 tumor-bearing mouse muscle at 8 to 10 uCi, iv after 30 mins by gamma counting; assay type: ADME, organism-based; details: in vivo, 0.5 h
Blood [20] = experiment: Biodistribution in S180 tumor-bearing mouse blood at 8 to 10 uCi, iv after 5 mins by gamma counting; assay type: ADME, organism-based; details: in vivo
Brain [21] = experiment: Biodistribution in S180 tumor-bearing mouse brain at 8 to 10 uCi, iv after 120 mins by gamma counting; assay type: ADME, organism-based; details: in vivo, 2 h
Lung [22] = experiment: Biodistribution in S180 tumor-bearing mouse lung at 8 to 10 uCi, iv after 60 mins by gamma counting; assay type: ADME, organism-based; details: in vivo, 1 h
[23] = Chemical stability in PBS after 2 hrs by radio-HPLC analysis at 60 degC; assay type: physicochemical; details: buffer
Spleen [24] = experiment: Biodistribution in S180 tumor-bearing mouse spleen at 8 to 10 uCi, iv after 30 mins by gamma counting; assay type: ADME, organism-based; details: in vivo, 0.5 h
Nucleic Acid [25] = experiment: Ratio of drug level in tumor to muscle in S180 tumor-bearing mouse at 8 to 10 uCi, iv at 5 mins by gamma counting; assay type: ADME, organism-based; details: in vivo
Lung [26] = experiment: Biodistribution in S180 tumor-bearing mouse lung at 8 to 10 uCi, iv after 120 mins by gamma counting; assay type: ADME, organism-based; details: in vivo, 2 h
Nucleic Acid [27] = experiment: Ratio of drug level in tumor to brain in S180 tumor-bearing mouse at 8 to 10 uCi, iv at 5 mins by gamma counting; assay type: ADME, organism-based; details: in vivo
[28] = n-octanol-PBS partition coefficient, logP of the compound; assay type: physicochemical
Spleen [29] = experiment: Biodistribution in S180 tumor-bearing mouse spleen at 8 to 10 uCi, iv after 5 mins by gamma counting; assay type: ADME, organism-based; details: in vivo
Muscle tissue [30] = experiment: Biodistribution in S180 tumor-bearing mouse muscle at 8 to 10 uCi, iv after 5 mins by gamma counting; assay type: ADME, organism-based; details: in vivo
Nucleic Acid [31] = experiment: Ratio of drug level in tumor to blood in S180 tumor-bearing mouse at 8 to 10 uCi, iv at 60 mins by gamma counting; assay type: ADME, organism-based; details: tumour, 1 h
Liver [32] = experiment: Biodistribution in S180 tumor-bearing mouse liver at 8 to 10 uCi, iv after 30 mins by gamma counting; assay type: ADME, organism-based; details: in vivo, 0.5 h
Kidney [33] = experiment: Biodistribution in S180 tumor-bearing mouse kidney at 8 to 10 uCi, iv after 120 mins by gamma counting; assay type: ADME, organism-based; details: in vivo, 2 h
Heart [34] = experiment: Biodistribution in S180 tumor-bearing mouse heart at 8 to 10 uCi, iv after 30 mins by gamma counting; assay type: ADME, organism-based; details: in vivo, 0.5 h
[35] = Chemical stability in PBS after 2 hrs by radio-HPLC analysis at room temperature; assay type: physicochemical; details: buffer
Kidney [36] = experiment: Biodistribution in S180 tumor-bearing mouse kidney at 8 to 10 uCi, iv after 60 mins by gamma counting; assay type: ADME, organism-based; details: in vivo, 1 h
Stomach [37] = experiment: Biodistribution in S180 tumor-bearing mouse stomach at 8 to 10 uCi, iv after 120 mins by gamma counting; assay type: ADME, organism-based; details: in vivo, 2 h
Spleen [38] = experiment: Biodistribution in S180 tumor-bearing mouse spleen at 8 to 10 uCi, iv after 60 mins by gamma counting; assay type: ADME, organism-based; details: in vivo, 1 h
Blood [39] = experiment: Clearance in S180 tumor-bearing mouse blood at 8 to 10 uCi, iv at 120 mins; assay type: ADME, organism-based; details: in vivo, 2 h
Mus musculus [40] = experiment: Biodistribution in S180 cells xenografted in mouse tumor at 8 to 10 uCi, iv after 30 mins by gamma counting; assay type: ADME, organism-based, Neoplasm, CCRF S-180; details: in vivo, 0.5 h
Lung [41] = experiment: Biodistribution in S180 tumor-bearing mouse lung at 8 to 10 uCi, iv after 30 mins by gamma counting; assay type: ADME, organism-based; details: in vivo, 0.5 h
Liver [42] = experiment: Biodistribution in S180 tumor-bearing mouse liver at 8 to 10 uCi, iv after 60 mins by gamma counting; assay type: ADME, organism-based; details: in vivo, 1 h
Nucleic Acid [43] = experiment: Ratio of drug level in tumor to brain in S180 tumor-bearing mouse at 8 to 10 uCi, iv at 60 mins by gamma counting; assay type: ADME, organism-based; details: in vivo, 1 h
Heart [44] = experiment: Biodistribution in S180 tumor-bearing mouse heart at 8 to 10 uCi, iv after 120 mins by gamma counting; assay type: ADME, organism-based; details: in vivo, 2 h
Stomach [45] = experiment: Biodistribution in S180 tumor-bearing mouse stomach at 8 to 10 uCi, iv after 5 mins by gamma counting; assay type: ADME, organism-based; details: in vivo
Mus musculus [46] = experiment: Biodistribution in S180 cells xenografted in mouse tumor at 8 to 10 uCi, iv after 5 mins by gamma counting; assay type: ADME, organism-based, Neoplasm, CCRF S-180; details: in vivo
Mus musculus [47] = experiment: Biodistribution in S180 cells xenografted in mouse tumor at 8 to 10 uCi, iv after 120 mins by gamma counting; assay type: ADME, organism-based, Neoplasm, CCRF S-180; details: in vivo, 2 h
Heart [48] = experiment: Biodistribution in S180 tumor-bearing mouse heart at 8 to 10 uCi, iv after 60 mins by gamma counting; assay type: ADME, organism-based; details: in vivo, 1 h
Nucleic Acid [49] = experiment: Ratio of drug level in tumor to muscle in S180 tumor-bearing mouse at 8 to 10 uCi, iv at 60 mins by gamma counting; assay type: ADME, organism-based; details: in vivo, 1 h
Brain [50] = experiment: Biodistribution in S180 tumor-bearing mouse brain at 8 to 10 uCi, iv after 60 mins by gamma counting; assay type: ADME, organism-based; details: in vivo, 1 h
Stomach [51] = experiment: Biodistribution in S180 tumor-bearing mouse stomach at 8 to 10 uCi, iv after 30 mins by gamma counting; assay type: ADME, organism-based; details: in vivo, 0.5 h
Nucleic Acid [52] = experiment: Ratio of drug level in tumor to muscle in S180 tumor-bearing mouse at 8 to 10 uCi, iv at 120 mins by gamma counting; assay type: ADME, organism-based; details: in vivo, 2 h
Muscle tissue [53] = experiment: Biodistribution in S180 tumor-bearing mouse muscle at 8 to 10 uCi, iv after 60 mins by gamma counting; assay type: ADME, organism-based; details: in vivo, 1 h
Spleen [54] = experiment: Biodistribution in S180 tumor-bearing mouse spleen at 8 to 10 uCi, iv after 120 mins by gamma counting; assay type: ADME, organism-based; details: in vivo, 2 h
Nucleic Acid [55] = experiment: Ratio of drug level in tumor to blood in S180 tumor-bearing mouse at 8 to 10 uCi, iv at 30 mins by gamma counting; assay type: ADME, organism-based; details: tumour, 0.5 h
Brain [56] = experiment: Biodistribution in S180 tumor-bearing mouse brain at 8 to 10 uCi, iv after 30 mins by gamma counting; assay type: ADME, organism-based; details: in vivo, 0.5 h

COc1cc2ncnc(Nc3cccc(Br)c3)c2cc1OCC[18F]
Ratio (Nucleic Acid [1]): 41.11
Drug uptake (Liver [2]): 1.78 % ID/g
Drug uptake (Heart [3]): 4.79 % ID/g
Drug uptake (Stomach [4]): 4.05 % ID/g
Drug uptake (Lung [5]): 12.21 % ID/g
Drug uptake (Kidney [6]): 10.85 % ID/g
Ratio (Nucleic Acid [7]): 0.09
Ratio (Nucleic Acid [8]): 6.61
Drug uptake (Muscle tissue [9]): 1.31 % ID/g
Drug uptake (Brain [10]): 0.78 % ID/g
Drug uptake (Blood [11]): 0.56 % ID/g
Drug uptake (Blood [12]): 1.58 % ID/g
Drug uptake (Kidney [13]): 2.83 % ID/g
Drug uptake (Blood [14]): 1.11 % ID/g
Drug uptake (Mus musculus [15]): 3.31 % ID/g
Drug uptake (Liver [16]): 9.67 % ID/g
Ratio (Nucleic Acid [17]): 1.64
Ratio (Nucleic Acid [18]): 10.36
Stability (Plasma): Stable
Drug uptake (Muscle tissue [19]): 2.46 % ID/g
Drug uptake (Blood [20]): 4.43 % ID/g
Drug uptake (Brain [21]): 0.09 % ID/g
Drug uptake (Lung [22]): 5.6 % ID/g
Stability [23]: Stable
Drug uptake (Spleen [24]): 1.25 % ID/g
Ratio (Nucleic Acid [25]): 0.2
Drug uptake (Lung [26]): 3.6 % ID/g
Ratio (Nucleic Acid [27]): 0.49
logP [28]: 0.89
Drug uptake (Spleen [29]): 2.84 % ID/g
Drug uptake (Muscle tissue [30]): 1.87 % ID/g
Ratio (Nucleic Acid [31]): 2.98
Drug uptake (Liver [32]): 7.96 % ID/g
Drug uptake (Kidney [33]): 1.07 % ID/g
Drug uptake (Heart [34]): 1.12 % ID/g
Stability [35]: Stable
Drug uptake (Kidney [36]): 0.9 % ID/g
Drug uptake (Stomach [37]): 4.1 % ID/g
Drug uptake (Spleen [38]): 0.8 % ID/g
CL (Blood [39]): 88%
Drug uptake (Mus musculus [40]): 4.04 % ID/g
Drug uptake (Lung [41]): 5.12 % ID/g
Drug uptake (Liver [42]): 1.87 % ID/g
Ratio (Nucleic Acid [43]): 17.42
Drug uptake (Heart [44]): 1.87 % ID/g
Drug uptake (Stomach [45]): 8.52 % ID/g
Drug uptake (Mus musculus [46]): 0.38 % ID/g
Drug uptake (Mus musculus [47]): 3.7 % ID/g
Drug uptake (Heart [48]): 0.98 % ID/g
Ratio (Nucleic Acid [49]): 7.7
Drug uptake (Brain [50]): 0.19 % ID/g
Drug uptake (Stomach [51]): 7.03 % ID/g
Ratio (Nucleic Acid [52]): 2.82
Drug uptake (Muscle tissue [53]): 0.43 % ID/g
Drug uptake (Spleen [54]): 1.05 % ID/g
Ratio (Nucleic Acid [55]): 2.56
Drug uptake (Brain [56]): 0.39 % ID/g

— ChEMBL document CHEMBL2057203, “Synthesis and evaluation of novel F-18 labeled 4-aminoquinazoline derivatives: potential PET imaging agents for tumor detection” (Bioorg Med Chem Lett, 2012)
